Legend:
H69/LX4 cells = experiment: Potentiation of toxicity of various cytotoxic agents, H69/LX4 cell line; format: cell-based; conditions: Vincristine; for Potentiation Index at RMA concentration 10 nM: RMA 10 nM; for Potentiation Index at RMA concentration 30 nM: RMA 30 nM; for Potentiation Index at RMA concentration 50 nM: RMA 50 nM
Procedure: (§1) (b) Cells were cultured for four days with a titration of doxorubicin (0.263 nM-17.24 μM) in the presence of a fixed concentration of each compound. Proliferation was quantified as described by Skehen et al, loc cit. The IC50 (concentration required to reduce proliferation to 50% of the untreated controls) for doxorubicin alone and with each compound were derived and used to calculate the potentiation index (PI): [formula]
(§2) The potentiation indices of a selection of compounds using a variety of cell lines and a variety of cytotoxics other than doxorubicin were measured following the protocol described above for doxorubicin, and the results are shown in Table D.

AR 1.0 cells [1] = experiment: Potentiation index with doxorubicin titration; format: cell-based, mouse; conditions: for Potentiation Index at RMA concentration 50 nM: Table C1, RMA 50 nM
In short: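 Doxorubicin IC50 in AR 1.0 cells (MDR subline of EMT6 mouse mammary carcinoma) determined by sulphorhodamine B after 4-day culture across 0.263 nM-17.24 μM, with and without a fixed dose of test compound; their ratio gives the PI.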

AR 1.0 cells [2] = experiment: Drug accumulation assay: daunorubicin accumulation in AR 1.0 cells; format: cell-based; conditions: Mus musculus, 100% = accumulation with verapamil 100 μM, 1 hr, 37° C.
In short: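 Daunorubicin accumulation was measured in cells plated 48 h beforehand. These were AR 1.0 cells, an MDR-resistant derivative of mouse EMT6 mammary carcinoma, cultured at 37 °C in 5% CO2 in RPMI 1640 plus 10% foetal calf serum and 2 mM glutamine.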

2780AD cells = experiment: Potentiation of toxicity of various cytotoxic agents, 2780AD cell line; format: cell-based; conditions: Taxol; for Potentiation Index at RMA concentration 10 nM: RMA 10 nM; for Potentiation Index at RMA concentration 30 nM: RMA 30 nM; for Potentiation Index at RMA concentration 50 nM: RMA 50 nM
Procedure: as §1, §2

AR 1.0 cells [3] = experiment: Potentiation of toxicity of various cytotoxic agents, AR 1.0 cell line; format: cell-based, mouse; conditions: for Potentiation Index at RMA concentration 10 nM: RMA 10 nM; for Potentiation Index at RMA concentration 30 nM: RMA 30 nM; for Potentiation Index at RMA concentration 50 nM: RMA 50 nM
Procedure: The EMT6 mouse mammary carcinoma cell line and the MDR resistant subline AR 1.0 were cultured in RPMI 1640 medium containing 10% foetal calf serum and 2 mM glutamine at 37° C. in 5% CO2. Cells were passaged between 1 in 200 and 1 in 2000 in the case of the parental cell line and between 1 in 20 and 1 in 200 in the case of the MDR resistant subline, after trypsinisation (0.25% trypsin, 0.2 gl^-1, EDTA).
as §1, §2

AR 1.0 cells [4] = experiment: Potentiation of doxorubicin toxicity: proliferation assay (sulphorhodamine B); format: cell-based, mouse; conditions: Mus musculus, 96 h; compound alone; four day proliferation; read-out: Compound Toxicity (IC50)
Description: (a) Selected compounds of formula (I) were examined for their ability to potentiate the toxicity of doxorubicin in AR 1.0 cells.

mdr la P-gp gene = conditions: cited from earlier work
MDR cells = conditions: in vitro and in vivo; cited from earlier work

Molecule	Potentiation Index at RMA concentration 10 nM (H69/LX4 cells)	Potentiation Index at RMA concentration 30 nM (H69/LX4 cells)	Potentiation Index at RMA concentration 50 nM (H69/LX4 cells)	Potentiation Index at RMA concentration 10 nM (AR 1.0 cells [1]; Table C1, RMA 10 nM)	Potentiation Index at RMA concentration 30 nM (AR 1.0 cells [1]; Table C1, RMA 30 nM)	Potentiation Index at RMA concentration 50 nM (AR 1.0 cells [1])	Potentiation Index at RMA concentration 100 nM (AR 1.0 cells [1]; Table C1, RMA 100 nM)	IC50 (AR 1.0 cells [2])	Potentiation Index at RMA concentration 10 nM (2780AD cells)	Potentiation Index at RMA concentration 30 nM (2780AD cells)	Potentiation Index at RMA concentration 50 nM (2780AD cells)	other results
COc1cc2c(cc1OC)CN(CCc1ccc(NC(=O)c3cc(N(C)C)ccc3NC(=O)c3cnc4ccccc4n3)cc1)CC2 [compound 9596, Quinoxaline-2-carboxylic acid (2-{4-[2-(6,7-dimethoxy-3,4-dihydro-1H-isoquinolin-2-yl)-ethyl]-phenylcarbamoyl}-4-dimethylamino-phenyl)-amide]	1	2	158	2.68	44	131	354	132 nM	3.5	160	743	
COc1cc2c(cc1OC)CN(CCc1ccc(NC(=O)c3cc(OC)c(OC)cc3NC(=O)c3cnc4ccccc4c3)cc1)CC2 [compound 9576, Quinoline-3-carboxylic acid (2-{4-[2-(6,7-dimethoxy-3,4-dihydro-1H-isoquinolin-2-yl)-ethyl]-phenylcarbamoyl}-4,5-dimethoxy-phenyl)-amide]								64 nM				Potentiation Index at RMA concentration 10 nM (AR 1.0 cells [3]; Etoposide): 26; Potentiation Index at RMA concentration 30 nM (AR 1.0 cells [3]; Etoposide): 45; Potentiation Index at RMA concentration 50 nM (AR 1.0 cells [3]; Etoposide): 51; Potentiation Index at RMA concentration 10 nM (AR 1.0 cells [1]; Table C2, RMA 10 nM): 78; Potentiation Index at RMA concentration 30 nM (AR 1.0 cells [1]; Table C2, RMA 30 nM): 225; Potentiation Index at RMA concentration 100 nM (AR 1.0 cells [1]; Table C2, RMA 100 nM): 280; IC50 (AR 1.0 cells [4]): 930 nM
ivermectin												increased sensitivity of mice deficient in mdr la P-gp gene (mdr la P-gp gene): up to 100 fold
COc1cc2c(cc1OC)CN(CCc1ccc(NC(=O)c3sccc3NC(=O)c3cnc4ccccc4n3)cc1)CC2 [compound 9597, Quinoxaline-2-carboxylic acid (2-{4-[2-(6,7-dimethoxy-3,4-dihydro-1H-isoquinolin-2-yl)-ethyl]-phenylcarbamoyl}-thiophen-3-yl)-amide]	1	41	44	80	382	551	878	87 nM	110	1427	2070	
COc1ccc(CCN(C)CCCC(C#N)(c2ccc(OC)c(OC)c2)C(C)C)cc1OC (stereo not shown) [Verapamil]												sensitisation of MDR cells to Vinca alkaloids (MDR cells): shown to sensitise MDR cells to Vinca alkaloids in vitro and in vivo
COc1cc2c(cc1OC)CN(CCc1ccc(NC(=O)c3sccc3NC(=O)c3cnc4ccccc4c3)cc1)CC2 [compound 9594, Quinoline-3-carboxylic acid (2-{4-[2-(6,7-dimethoxy-3,4-dihydro-1H-isoquinolin-2-yl)-ethyl]-phenylcarbamoyl}-thiophen-3-yl)-amide]	2	79	356	11	159	307	601	87 nM	18	425	1126	Potentiation Index at RMA concentration 10 nM (AR 1.0 cells [3]; Taxol): 50; Potentiation Index at RMA concentration 30 nM (AR 1.0 cells [3]; Taxol): 308; Potentiation Index at RMA concentration 50 nM (AR 1.0 cells [3]; Taxol): 407

Reference: patent US6218393A, “Anthranilic acid derivatives as multi drug resistance modulators” (priority 1997, dated 2001)
